Source: patent publication US4410716A, “Dibenzo[a,d]cycloheptene derivatives and process for production thereof” (Toa Eiyo Kagaku Kogyo Co. Ltd., priority 1979, dated 1983)
Read-outs that look alike come from different tables or passages of the source.

Columns and labels:
gastric wall = test: in vivo; conditions: for Number of animals with ulcer/number of animals used: 16 hours; for Ulcer index (Mean ± SE): Adami's method
Experimental: (§1) The anti-inflammatory activity, analgesic activity and ulcerogenic activity of the novel dibenzo[a,d]cycloheptene derivatives of this invention were tested by the following methods.
(§2) Sixteen hours later, the rats were sacrificed under ether anesthesia.
(§3) *Calculated by the Adami's method.
(§4) **Calculated by the LitchfieldWilcoxon's method. The parenthesized values
(§5) show 95% confidence limits.

in vivo = conditions: rat, in vivo, po
Experimental: as §1, §2, §3, §4, §5

[1] = system: edema (carrageenin, hind paw); test: Anti-inflammatory activity: carrageenin hind paw edema in rats, oral administration; assay type: in vivo, male Donryu rats; conditions: Rattus norvegicus, po; for inhibition in vivo at 1 mg/kg / inhibition in vivo at 5 mg/kg / inhibition in vivo at 10 mg/kg: read-out: Percent edema inhibition
Experimental: as §1
Each of test compounds was orally administered to groups of male Donryu rats weighing 130 to 150 g (8 to 10 rats per group), and one hour later, 0.1 ml of a 1% carrageenin solution was injected subcutaneously into the hind paw of each rat. After injection of carrageenin, the volume of the paw was measured at predetermined periods, and the percent inhibition against a control group was calculated.

[2] = system: writhing syndromes (acetic acid); test: Analgesic activity: acetic acid writhing in mice; assay type: in vivo, male ICR mice
Experimental: as §1
Using male ICR mice weighing 25 to 30 g (10 mice per group), there was measured the number of writhing syndromes induced when a 1% solution of acetic acid was intraperitoneally injected at a dose of 10 ml/kg. The percent inhibition against a control group was calculated.

## COc1ccc2c(c1)c(CC(=O)O)c(C)n2C(=O)c1ccc(Cl)cc1 [Indomethacin, reference compound]
Gastric wall; 3.13 mg/kg oral
  Number of animals with ulcer/number of animals used: 0/8
  Ulcer index (Mean ± SE): 0
Gastric wall; 6.25 mg/kg oral
  Number of animals with ulcer/number of animals used: 2/8
  Ulcer index (Mean ± SE): 0.37 ± 0.26
Gastric wall; 12.5 mg/kg oral
  Number of animals with ulcer/number of animals used: 4/8
  Ulcer index (Mean ± SE): 1.38 ± 0.53
Gastric wall; 25.0 mg/kg oral
  Number of animals with ulcer/number of animals used: 7/8
  Ulcer index (Mean ± SE): 1.88 ± 0.35
Gastric wall; 50.0 mg/kg oral
  Number of animals with ulcer/number of animals used: 8/8
  Ulcer index (Mean ± SE): 3.12 ± 0.12
In vivo
  TD50 at 16 h: 11.7 mg/kg
  selectivity ratio: 1.2
[1]; 1 h
  inhibition in vivo at 1 mg/kg: 0%
  inhibition in vivo at 5 mg/kg: 3.9%
  inhibition in vivo at 10 mg/kg: 37.2%
[1]; 2 h
  inhibition in vivo at 1 mg/kg: 20.3%
  inhibition in vivo at 5 mg/kg: 31.1%
  inhibition in vivo at 10 mg/kg: 45.3%
[1]; 3 h, read-out: ED40 value
  ED40: 9.8 mg/kg
[1]; 3 h
  inhibition in vivo at 1 mg/kg: 6.3%
  inhibition in vivo at 5 mg/kg: 25.9%
  inhibition in vivo at 10 mg/kg: 41.8%
[1]; 4 h
  inhibition in vivo at 1 mg/kg: 10.2%
  inhibition in vivo at 5 mg/kg: 31.7%
  inhibition in vivo at 10 mg/kg: 40.5%
[2]; 1.25 mg/kg
  Inhibition (writhing): 27.7%
  Number of writhing syndromes (Mean ± SE): 14.6 ± 2.35
[2]; 2.5 mg/kg
  Inhibition (writhing): 40.6%
  Number of writhing syndromes (Mean ± SE): 12.0 ± 0.92
[2]; 5.0 mg/kg
  Inhibition (writhing): 48.0%
  Number of writhing syndromes (Mean ± SE): 10.5 ± 1.40
[2]; 10.0 mg/kg
  Inhibition (writhing): 62.4%
  Number of writhing syndromes (Mean ± SE): 7.6 ± 1.15
[2]; 20.0 mg/kg
  Inhibition (writhing): 70.3%
  Number of writhing syndromes (Mean ± SE): 6.0 ± 0.94
[2]; Mus musculus, po, read-out: ED50 value
  ED50: 5 mg/kg
